The source of these data is patent publication US8158792B2, “Spiropiperidines for use as tryptase inhibitors” (Janssen Pharmaceutica N.V., priority 2007, dated 2012).

The target in the assay is human lung tryptase. Nature of the assay: β-Tryptase In-Vitro Enzyme Assay. Format: biochemical. To be noted: human lung tryptase 1 nM, substrate H-D-HHT-Ala-Arg-pNa 500 μM, pH 7.4, room temperature. On the procedure: The β-tryptase assay was conducted with human lung tryptase (Cortex Biochem #CP3033) in an aqueous buffer (10 mM Tris, 10 mM Hepes, 150 mM NaCl, 0.1% PEG 8000, pH 7.4) using the chromogenic substrate H-D-HHT-Ala-Arg-pNa. […] Percent inhibition was calculated by comparing the initial reaction velocity of samples without inhibitor to those with inhibitor. The initial reaction velocities were analyzed using Microsoft Excel.
For the compound `NCc1ccc2c(c1)C1(CCN(C(=O)c3ccc(-n4cc(-c5nc6ccccc6o5)cn4)cc3)CC1)CO2` [Cpd 17, 1-{4-[(4-benzoxazol-2-yl)-pyrazol-1-yl]-phenyl}carbonyl-5′-aminomethyl-spiro[piperidine-4,3′-(2H)-benzo[b]furan]], it took 290 nM to reach half-maximal inhibition (IC50). That is a sub-micromolar value.

The compound `NCc1ccc2c(c1)C1(CCN(C(=O)C#Cc3ccccc3)CC1)CO2` [Cpd 108, 1-(phenylethynyl)carbonyl-5′-aminomethyl-spiro[piperidine-4,3′-(2H)-benzo[b]furan]] had an IC50 of 250 nM.

Turning to `NCc1ccc2c(c1)C1(CCN(C(=O)c3cccc(I)c3)CC1)CO2` [Cpd 48, 1-(3-iodo-phenyl)carbonyl-5′-aminomethyl-spiro[piperidine-4,3′-(2H)-benzo[b]furan]], the IC50 amounted to 16 nM. Against the preceding compound, the IC50 is about 16-fold lower.

For the compound `NCc1ccc2c(c1)C1(CCN(C(=O)/C=C\c3c[nH]cn3)CC1)CO2` [Cpd 243, (Z)-1-(imidazol-4-ylethenyl)carbonyl-5′-aminomethyl-spiro[piperidine-4,3′-(2H)-benzo[b]furan]], the IC50 was determined as 3100 nM.

Take `NCc1ccc2c(c1)C1(CCN(S(=O)(=O)c3ccc(Cl)c(Cl)c3)CC1)CO2` [Cpd 280, 1-(3,4-dichlorophenyl)sulfonyl-5′-aminomethyl-spiro[piperidine-4,3′-(2H)-benzo[b]furan]]: the 50% inhibitory concentration (IC50) worked out at 220 nM.

For the compound `Cc1cc(C(=O)N2CCC3(CC2)COc2ccc(CN)cc23)ccc1Cl` [Cpd 25, 1-(3-methyl-4-chloro-phenyl)carbonyl-5′-aminomethyl-spiro[piperidine-4,3′-(2H)-benzo[b]furan]], the IC50 turned out to be 140 nM.

`NCc1ccc2c(c1)C1(CCN(C(=O)c3cc4c(s3)CCC4)CC1)CO2` [Cpd 246, 1-(5,6-dihydro-4H-cyclopenta[b]thien-2-yl)carbonyl-5′-aminomethyl-spiro[piperidine-4,3′-(2H)-benzo[b]furan]] came in with a 50% inhibitory concentration (IC50) of 200 nM.

In turn, `CCOc1sc(C(=O)N2CCC3(CC2)COc2ccc(CN)cc23)c2c1C(=O)CCC2` [Cpd 261, 1-(3-ethoxy-4-oxo-5,6,7-trihydro-4H-benzo[c]thien-1-yl)carbonyl-5′-aminomethyl-spiro[piperidine-4,3′-(2H)-benzo[b]furan]] registered a concentration for half-maximal inhibition (IC50) of 73 nM.

In the case of `NCc1ccc2c(c1)C1(CCN(C(=O)c3ccc(Cl)c(F)c3)CC1)CO2` [Cpd 46, 1-(3-fluoro-4-chloro-phenyl)carbonyl-5′-aminomethyl-spiro[piperidine-4,3′-(2H)-benzo[b]furan]], the concentration for half-maximal inhibition (IC50) is 110 nM.

`NCc1ccc2c(c1)C1(CCN(C(=O)c3ccc4c(c3)S(=O)(=O)c3ccccc3C4=O)CC1)CO2` [Cpd 7, 1-(9-oxo-10,10-dioxo-thioxanthen-3-yl)carbonyl-5′-aminomethyl-spiro[piperidine-4,3′-(2H)-benzo[b]furan]] gave a concentration for half-maximal inhibition (IC50) of 780 nM. This IC50 is about 7.1-fold higher than that of the compound before.

In the case of `NCc1ccc2c(c1)C1(CCN(C(=O)c3cc4ccccc4n3S(=O)(=O)c3ccccc3)CC1)CO2` [Cpd 283, 1-(1-phenylsulfonyl-1H-indol-2-yl)carbonyl-5′-aminomethyl-spiro[piperidine-4,3′-(2H)-benzo[b]furan]], half-maximal inhibition (IC50) was put at 910 nM.

`Cc1nc(-c2cccnc2)sc1C(=O)N1CCC2(CC1)COc1ccc(CN)cc12` [Cpd 124, 1-(2-pyridin-3-yl-4-methyl-thiazol-5-yl)carbonyl-5′-aminomethyl-spiro[piperidine-4,3′-(2H)-benzo[b]furan]] showed an IC50 of 1100 nM.

`NCc1ccc2c(c1)C1(CCN(C(=O)c3ccc(Cl)c(Cl)c3)C(=O)C1)CO2` (centres unmarked) [Cpd 262, 1-(3,4-dichlorophenyl)carbonyl-2-oxo-5′-aminomethyl-spiro[piperidine-4,3′-(2H)-benzo[b]furan]] registered an IC50 of 4500 nM. This IC50 lies about 4.1-fold higher than the previous one.

Compound `NCc1ccc2c(c1)C1(CCN(C(=O)c3sc(SCc4ccccc4)c4ccccc34)CC1)CO2` [Cpd 240, 1-(3-benzylthio-benzo[c]thien-1-yl)carbonyl-5′-aminomethyl-spiro[piperidine-4,3′-(2H)-benzo[b]furan]] gave an IC50 of 1.8 nM.

For the compound `NCc1ccc2c(c1)C1(CCN(C(=O)Cc3ccccc3)CC1)CO2` [Cpd 78, 1-benzylcarbonyl-5′-aminomethyl-spiro[piperidine-4,3′-(2H)-benzo[b]furan]], the IC50 stood at 1400 nM. This IC50 is about 780-fold higher than that of the compound before.

`CSc1ccc(C(=O)N2CCC3(CC2)COc2ccc(CN)cc23)s1` [Cpd 247, 1-(5-methylthio-thien-2-yl)carbonyl-5′-aminomethyl-spiro[piperidine-4,3′-(2H)-benzo[b]furan]] yielded a 50% inhibitory concentration (IC50) of 36 nM.

As to `NCc1ccc2c(c1)C1(CCN(C(=O)c3ccc(C4CCCCC4)cc3)CC1)CO2` [Cpd 73, 1-(4-cyclohexyl-phenyl)carbonyl-5′-aminomethyl-spiro[piperidine-4,3′-(2H)-benzo[b]furan]], the concentration for half-maximal inhibition (IC50) amounted to 2500 nM.

Turning to `COC(=O)c1ccc(C(=O)N2CCC3(CC2)COc2ccc(CN)cc23)s1` [Cpd 267, 1-(5-methoxycarbonyl-thien-2-yl)carbonyl-5′-aminomethyl-spiro[piperidine-4,3′-(2H)-benzo[b]furan]], the half-inhibitory concentration (IC50) stood at 340 nM.

Consider `NCc1ccc2c(c1)C1(CCN(C(=O)c3cncc(-c4ccccc4)c3)CC1)CO2` [Cpd 142, 1-(5-phenyl-pyridin-3-yl)carbonyl-5′-aminomethyl-spiro[piperidine-4,3′-(2H)-benzo[b]furan]], for which inhibition was half-maximal at 650 nM (IC50).

The compound `NCc1ccc2c(c1)C1(CCN(C(=O)c3cccc(F)c3)CC1)CO2` [Cpd 42, 1-(3-fluoro-phenyl)carbonyl-5′-aminomethyl-spiro[piperidine-4,3′-(2H)-benzo[b]furan]] yielded a concentration for half-maximal inhibition (IC50) of 360 nM.

As to `Cc1cccc(/C=C/C(=O)N2CCC3(CC2)COc2ccc(CN)cc23)c1` [Cpd 179, (E)-1-(3-methyl-phenylethenyl)carbonyl-5′-aminomethyl-spiro[piperidine-4,3′-(2H)-benzo[b]furan]], the IC50 amounted to 260 nM.

As for `NCc1ccc2c(c1)C1(CCN(C(=O)c3ccc(C#Cc4cc(F)cc(F)c4)o3)CC1)CO2` [Cpd 176, 1-[5-(3,5-difluoro-phenylethynyl)-furan-2-yl]carbonyl-5′-aminomethyl-spiro[piperidine-4,3′-(2H)-benzo[b]furan]], the IC50 turned out to be 41 nM.

`NCc1ccc2c(c1)C1(CCN(C(=O)c3cccc(OC(F)(F)F)c3)CC1)CO2` [Cpd 60, 1-(3-trifluoromethoxy-phenyl)carbonyl-5′-aminomethyl-spiro[piperidine-4,3′-(2H)-benzo[b]furan]] displayed an IC50 of 2100 nM. Against the preceding compound, the IC50 is about 51-fold higher.

`NCc1ccc2c(c1)C1(CCN(C(=O)c3ccc(Cn4cc(Cl)cn4)o3)CC1)CO2` [Cpd 145, 1-[5-(4-chloro-pyrazol-1-ylmethyl)-furan-2-yl]carbonyl-5′-aminomethyl-spiro[piperidine-4,3′-(2H)-benzo[b]furan]] gave a half-inhibitory concentration (IC50) of 340 nM.

`NCc1ccc2c(c1)C1(CCN(C(=O)c3ccc(C(F)(F)F)cc3)CC1)CO2` [Cpd 71, 1-(4-trifluoromethyl-phenyl)carbonyl-5′-aminomethyl-spiro[piperidine-4,3′-(2H)-benzo[b]furan]] registered a half-inhibitory concentration (IC50) of 910 nM.

In the case of `NCc1ccc2c(c1)C1(CCN(C(=O)c3ccc(-c4cc(C(F)(F)F)ccc4Cl)o3)CC1)CO2` [Cpd 129, 1-[5-(2-chloro-5-trifluoromethyl-phenyl)-furan-2-yl]carbonyl-5′-aminomethyl-spiro[piperidine-4,3′-(2H)-benzo[b]furan]], the IC50 came out at 99 nM.

In turn, `NCc1ccc2c(c1)C1(CCN(C(=O)CCc3ccc4c(c3)OCO4)CC1)CO2` [Cpd 104, 1-(benzodioxol-5-ylethyl)carbonyl-5′-aminomethyl-spiro[piperidine-4,3′-(2H)-benzo[b]furan]] showed a half-inhibitory concentration (IC50) of 4500 nM. This IC50 lies about 45-fold higher than the previous one.

In turn, `Cc1cccc(C(=O)N2CCC3(CC2)COc2ccc(CN)cc23)c1` [Cpd 41, 1-(3-methyl-phenyl)carbonyl-5′-aminomethyl-spiro[piperidine-4,3′-(2H)-benzo[b]furan]] yielded an IC50 of 470 nM.

Regarding `COc1cc(CC(=O)N2CCC3(CC2)COc2ccc(CN)cc23)ccc1OCc1ccccc1` [Cpd 106, 1-(3-methoxy-4-benzyloxy-benzyl)carbonyl-5′-aminomethyl-spiro[piperidine-4,3′-(2H)-benzo[b]furan]], the IC50 amounted to 610 nM.

In the case of `Cc1cc(C(=O)NCc2ccc(C(=O)N3CCC4(CC3)COc3ccc(CN)cc34)o2)c(C)o1` [Cpd 156, 1-[5-(2,5-dimethyl-furan-3-yl-carbonylaminomethyl)-furan-2-yl]carbonyl-5′-aminomethyl-spiro[piperidine-4,3′-(2H)-benzo[b]furan]], the 50% inhibitory concentration (IC50) stood at 130 nM.

Consider `NCc1ccc2c(c1)C1(CCN(C(=O)c3ccc(-c4cccc(C(F)(F)F)c4)cc3)CC1)CO2` [Cpd 15, 1-[4-(3-trifluoromethyl-phenyl)-phenyl]carbonyl-5′-aminomethyl-spiro[piperidine-4,3′-(2H)-benzo[b]furan]], for which the IC50 turned out to be 5500 nM. This IC50 is about 42-fold higher than that of the compound before.

Take `NCc1ccc2c(c1)C1(CCN(C(=O)c3cc(-c4ccccc4)c(C(F)(F)F)s3)CC1)CO2` [Cpd 295, 1-(4-phenyl-5-trifluoromethyl-thien-2-yl)carbonyl-5′-aminomethyl-spiro[piperidine-4,3′-(2H)-benzo[b]furan]]: it took 42 nM to reach half-maximal inhibition (IC50). Compared with the last compound, the IC50 is about 130-fold lower.

`Cc1cc(C(=O)N2CCC3(CC2)COc2ccc(CN)cc23)ccc1I` [Cpd 51, 1-(3-methyl-4-iodo-phenyl)carbonyl-5′-aminomethyl-spiro[piperidine-4,3′-(2H)-benzo[b]furan]] came in with an IC50 of 190 nM.

As to `NCc1ccc2c(c1)C1(CCN(C(=O)c3cn(Cc4ccccc4)c4ccccc34)CC1)CO2` [Cpd 239, 1-(1-benzyl-indol-3-yl)carbonyl-5′-aminomethyl-spiro[piperidine-4,3′-(2H)-benzo[b]furan]], half-maximal inhibition (IC50) was put at 270 nM.

Turning to `NCc1ccc2c(c1)C1(CCN(C(=O)c3ccc(C#Cc4ccccc4)o3)CC1)CN2S(=O)(=O)c1csc(C(=O)O)c1` [Cpd 347, 1-(5-phenylethynyl-furan-2-yl)carbonyl-1′-(5-carboxy-thien-3-yl)sulfonyl-5′-aminomethyl-spiro[piperidine-4,3′-(2H)-indole]], the IC50 came to 24 nM.
